Patent US20170328922A1, “METHODS AND PRODUCTS FOR LABELLING LIPIDS” (UNIVERSITY OF SOUTH AUSTRALIA, priority 2014, published 2017)

Key:
Type in all cases: binding
albumin = albumin (Homo sapiens, UniProt P02768); experiment: Rhenium probe overlay, Example 5; details: neither ... nor ... reacted with the probe
Protocol: To determine the binding properties of tricarbonyl-(4-cyanophenyltretrazolato)-phenanthroline-rhenium (I) (Rhenium probe) to various lipids, Rhenium probe-lipid overlay was performed using either lipids spotted onto PDVF membranes (Perkin Elmer, USA) or lipid MicroStrips (Echelon Biosciences Inc., Salt Lake City, Utah). The membranes contained at least 100 pmoles of each lipid in individual spots (supplementary table 1) or 10 μL (each in PBS) of 10% (v/v) glycerol, 1% (v/v) CHAPS, 1% (w/v) SDS, 1% (v/v) Tween20, Ecydsone (10 μg/100 μL), cholesterol (10 μg/100 μL), progesterone (10 μg/100 μL), PBS, or 1% (v/v) ethanol; and were incubated with 0.5 mM of Rhenium probe in 1% (w/v) BSA/PBS for 40 minutes and then washed four times for 10 minutes in PBS. Imaging was performed on an Image Quant Las 4000 (GE, Sweden) luminescent image analyser, with the Rhenium probe being detected by excitation at 460 nm using an epi-blue light source, and detected using an 605 nm ethidium bromide filter.

[1] = Rhenium molecular probe-lipid overlay (dot blot); parameters: key to interaction with Sphingosine (dot blot): ✓ indicates a positive interaction; x indicates no interaction
Protocol: (§1) The experimental protocol probe-lipid overlay was as follows: 50 μM of each lipids was loaded on to PVDF membranes (Perkin Elmer, USA), which were then incubated with molecular probes. PhenCyano and PhenPyridyl were assessed against eleven lipids including; sphingomyelin (Cat # S0756, Sigma Aldrich, USA), sphingosine (Cat # S7049; Sigma Aldrich, USA), L-phosphatidylethanolamine (Cat # P7943, Sigma Aldrich, USA), monosialodanglioside (GM1; Cat # G7641, Sigma Aldrich, USA), oleoly-L-?-lysophosphatidic acid (Cat # L7260, Sigma Aldrich, USA), palmitic acid (Cat # P5917, Sigma Aldrich, USA), sphingomyelin (Cat # S0756, Sigma Aldrich, USA), sphingosine (Cat # S7049; Sigma Aldrich, USA), L-?-phosphatidylethanolamine (Cat # P7943, Sigma Aldrich, USA), monosialodanglioside (GM1; Cat # G7641, Sigma Aldrich, USA), progesterone (Cat #102722, MP Biomedical, USA), ceramide (Cat # C2137; Sigma Aldrich, USA), triacylglycerol mix C2-C10 (Cat #17810, Sigma Aldrich, USA) and cholesteryl acetate (Cat #151114; Sigma Aldrich, USA).
(§2) All other molecular probes were assessed against a panel of six lipids including; sphingomyelin (Cat # S0756, Sigma Aldrich, USA), sphingosine (Cat # S7049; Sigma Aldrich, USA), L-?-phosphatidylethanolamine (Cat # P7943, Sigma Aldrich, USA), monosialodanglioside (GM1; Cat # G7641, Sigma Aldrich, USA), sphingomyelin (Cat # S0756, Sigma Aldrich, USA), sphingosine (Cat # S7049; Sigma Aldrich, USA), L-?-phosphatidylethanolamine (Cat # P7943, Sigma Aldrich, USA), monosialodanglioside (GM1; Cat # G7641, Sigma Aldrich, USA) and triacylglycerol mix C2-C10 (Cat #17810, Sigma Aldrich, USA).
(§3) Lipids were dissolved in ethanol, methanol or isopropanol for loading depending on solubility. Following lipid loading, membranes were left to dry for 20-30 minutes, then they were washed for 10 minutes in cold 10% ethanol, before they were incubated with 10 μM solution of each Rhenium molecular probe in cold 10% ethanol for one hour. Membranes were than washed four times for 10 minutes in cold 10% ethanol prior to imaging. Imaging was performed on an Image Quant Las 4000 (GE, Sweden) luminescent image analyser, with the Rhenium molecular probe being detected by excitation at 460 nm using an epi-blue light source, and detected using an 575 nm ethidium bromide filter.

[2] = Rhenium molecular probe-lipid overlay (dot blot); parameters: key to interaction with Sphingomyline (dot blot): ✓ indicates a positive interaction; x indicates no interaction
Protocol: as §1, §2, §3

[3] = Rhenium molecular probe-lipid overlay (dot blot); parameters: key to interaction with Cholestrol (dot blot): ✓ indicates a positive interaction; x indicates no interaction
Protocol: as §1, §2, §3

[4] = Rhenium molecular probe-lipid overlay (dot blot); details: FIG. 7
Protocol: as §1, §3

[5] = Rhenium molecular probe-lipid overlay (dot blot); parameters: key to interaction with GM1 (dot blot): ✓ indicates a positive interaction; x indicates no interaction
Protocol: as §1, §2, §3

[6] = Rhenium molecular probe-lipid overlay (dot blot); parameters: key to interaction with Lysophosphatidic acid (dot blot): ✓ indicates a positive interaction; x indicates no interaction
Protocol: as §1, §3

[7] = 10 μM probe, 50 μM lipid on PVDF membrane

Chain of albumin (P02768 25-609, species assumed): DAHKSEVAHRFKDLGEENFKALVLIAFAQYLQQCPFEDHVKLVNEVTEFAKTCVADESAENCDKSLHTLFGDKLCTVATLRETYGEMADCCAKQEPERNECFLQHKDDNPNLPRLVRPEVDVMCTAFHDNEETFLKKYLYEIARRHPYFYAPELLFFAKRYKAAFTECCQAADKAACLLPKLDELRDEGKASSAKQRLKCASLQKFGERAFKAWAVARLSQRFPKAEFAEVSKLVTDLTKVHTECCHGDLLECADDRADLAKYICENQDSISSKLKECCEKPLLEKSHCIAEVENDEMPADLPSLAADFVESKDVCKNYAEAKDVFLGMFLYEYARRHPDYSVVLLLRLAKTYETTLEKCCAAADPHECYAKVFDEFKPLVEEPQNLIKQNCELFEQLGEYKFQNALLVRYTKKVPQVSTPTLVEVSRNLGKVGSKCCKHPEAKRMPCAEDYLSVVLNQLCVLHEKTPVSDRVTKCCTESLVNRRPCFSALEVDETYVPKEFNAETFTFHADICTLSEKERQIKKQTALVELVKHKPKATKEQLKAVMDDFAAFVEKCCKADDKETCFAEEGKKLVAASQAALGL

N#Cc1ccc(-c2nn[n]([Re](=[C]=O)(=[C]=O)=[C]=O)n2)cc1.c1cnc2c(c1)ccc1cccnc12 [PhenCyano, Triscarbonyl phenanthroline (4-cyanophenyltetrazolato)Rhenium(I)]
Neither: reactivity with albumin (albumin)
✓: interaction with Sphingosine (dot blot) [1, 7] | interaction with Sphingomyline (dot blot) [2, 7] | interaction with Cholestrol (dot blot) [3, 7] | interaction with GM1 (dot blot) [5, 7] | interaction with Lysophosphatidic acid (dot blot) [6, 7]
no interaction detected: interaction with cholesterol ester (cholesteryl acetate), in words [4]
some affinity: affinity towards sphingosine, in words ([1]; FIG. 7 / FIG. 8) | affinity towards sphingomyelin, in words ([2]; FIG. 7 / FIG. 8) | affinity towards cholesterol, in words ([3]; FIG. 7 / FIG. 8) | affinity towards monosialotetrahexosylganglioside (GM1), in words ([5]; FIG. 7 / FIG. 8) | affinity towards lysophosphatidic acid, in words ([6]; FIG. 7)
